Experimental findings from US8962244B2, “Compounds for modulating RNA binding proteins and uses therefor” (University of Massachusetts, priority 2009, dated 2015) are described below.

Molecules are shown by their SMILES.

One test concerns the target T1, POS-1 (Caenorhabditis elegans, UniProt G5EF15).
T1 construct: 6-his tag (N); made in house; host or cells: E. coli BL21 (DE3) Gold
T1 sequence (G5EF15 80-180): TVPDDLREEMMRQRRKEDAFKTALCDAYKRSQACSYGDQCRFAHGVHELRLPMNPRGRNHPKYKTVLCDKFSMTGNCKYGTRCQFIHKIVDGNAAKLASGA
Kind of test: Fluorescence polarization screening of POS-1 binding to fluorescein-labeled BMF018 RNA. The note with it: 192 μM test compound; score = polarization relative to no-drug and no-protein controls; 0.25 = 75% inhibition; lowest score = greatest inhibition; read-out: POS-1 score.
`Cc1ccc(NS(=O)(=O)c2ccc(F)cc2)c(NS(=O)(=O)c2ccc(F)cc2)c1` [DS]: the remaining activity at 192 µM amounted to 17.7%. The same measure, in the same setting: in the case of `CCOC(=O)c1ccc(N2NC(=O)/C(=C/c3cccc(OC(=O)c4cccs4)c3)C2=O)cc1` [DL] it was 14.3%; in that of `Cc1ccc(S(=O)(=O)NCc2nc3ccccc3[nH]2)cc1` [DY], 20%.

On to `CCOC(=O)C1=C(C)Nc2[nH]c(=O)[nH]c(=O)c2C1c1ccccc1[N+](=O)[O-]` (stereo not shown) [EF], for which the remaining activity at 192 µM stood at 22.8%. On the same count and under the same terms, in the case of `O=S(=O)(Nc1ccc(S(=O)(=O)Nc2nccs2)cc1)c1ccc(Br)cc1` [CZ] it was 4.89%. Still for that read-out and setting: in the case of `CCOc1cc(/C=C2\C(=O)N(c3ccc(C(=O)O)cc3)N=C2C)ccc1OC(=O)c1cccs1` [EE] it was 22.5%.

For another test, the target named is T2, MEX-5 (Caenorhabditis elegans, UniProt Q9XUB2).
T2 construct: The fragment of mex-5 containing the TZF domain (amino acids 236-350) was amplified; made in house; host or cells: Escherichia coli JM109
T2 sequence (Q9XUB2 236-350): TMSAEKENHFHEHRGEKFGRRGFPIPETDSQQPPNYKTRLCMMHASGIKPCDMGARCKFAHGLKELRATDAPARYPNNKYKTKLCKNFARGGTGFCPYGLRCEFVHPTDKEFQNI
Kind of test: Fluorescence polarization screening of MEX-5 binding to fluorescein-labeled TCR2 RNA. The following applies: 192 μM test compound; score = polarization relative to no-drug and no-protein controls; 0.25 = 75% inhibition; lowest score = greatest inhibition; read-out: MEX-5 score. From the text: The expression and purification of recombinant MEX-5 protein has previously been described in Pagano, J. M., Farley, B. M., McCoig, L. M. and Ryder, S. P. (2007) “Molecular basis of RNA recognition by the embryonic polarity determinant MEX-5;” J Biol Chem; 282, 8883-8894. The fragment of mex-5 containing the TZF domain (amino acids 236-350) was amplified from a commercially available ORFeome clone (Open Biosystems) and sub-cloned into the vector pMal-c (NEB), which encodes maltose binding protein as an N-terminal fusion. This construct is termed pMal-MEX-5 (236-350).
MEX-5 is expressed in Escherchia. coli JM109 liquid cultures grown at 37° C. Cultures were induced during mid log phase by the addition of 0.1 mM isopropyl 1-thio-β-D-galactopyranoside (IPTG) and allowed to grow for three hours. An amount of 100 μM zinc acetate (final concentration) was added at the time of induction. The pelleted cells were resuspended in lysis buffer (50 mM Tris pH 8.8, 200 mM NaCl, 2 mM DTT, EDTA free protease inhibitor tablet (Roche), 100 μM Zn(OAc)2) and lysed by sonication. The soluble protein was purified in three steps using standard chromatography methods: (1) amylose affinity (NEB), (2) Hi-TRAP-Q (GE Healthcare), and (3) Hi-TRAP-S (GE Healthcare). The Q buffer was composed of 50 mM Tris, pH 8.8, 20 mM-1500 mM NaCl, 2 mM DTT, and 100 μM Zn(OAc)2. The S buffer was composed of 50 mM MOPS, pH 6.0, 20 mM-1500 mM NaCl, 2 mM DTT, 100 μM Zn(OAc)2. The pure fractions, determined by coomassie-stained SDS-PAGE, were dialyzed into storage buffer (20 mM Tris, pH 8.0, 25 mM NaCl, 100 μM Zn(OAc)2, 2 mM DTT). The protein concentration was determined by measuring absorbance at 280 nm and the calculated extinction coefficient. The protein was stored at 50 μM concentration at 4° C.
All RNA oligonucleotides were chemically synthesized by Dharmacon or Integrated DNA Technologies. Upon arrival, each RNA was deprotected and stored according to the manufacturer's instructions. Prior to use, the RNA was resuspended in 10 mM Tris-HCl, pH 8.0, 0.1 mM EDTA, and the concentration determined by UV spectrophotometry using the calculated extinction coefficient at 260 nm based on the specific sequence. The sequence of the MEX-5 binding RNA (TCR2) is […] (SEQ ID NO:1). The POS-1 binding RNA (BMF018) is […] (SEQ ID NO:2). The MEX-3 binding RNA (SEQ 14) is […] (SEQ ID NO:3).
The RNA used for the small molecule screen was labeled at the 3′-end with fluorescein by Dharmacon during synthesis. In a few cases, follow up experiments were performed with post-synthetically labeled RNA. In this case, fluorescein 5-thiosemicarbazide (FTSC, Invitrogen) was used to 3′-end label each RNA after treatment with sodium periodate (see Reines, S. A. and Cantor, C. R. (1974) “New fluorescent hydrazide reagents for the oxidized 3′-terminus of RNA” Nucleic Acids Res. 1, 767-786). A representative 50 μl reaction consisted of 0.5 nanomoles RNA, 100 mM NaOAc, pH 5.1, and 5 nanomoles NaIO4. After the reaction was complete (90 minutes at room temperature), the sample was ethanol precipitated by adding 1 μl RNase free glycogen (Invitrogen 20 μg/μl), 1/20th volume of 5 M NaCl, and 2 volumes of 100% ice-cold ethanol. The resulting pellet was resuspended in 50 μl of 100 mM NaOAc, pH 5.1 containing 1 mM FTSC and was allowed to react overnight at 4° C. in the dark. The unreacted label was removed by ethanol precipitation with resuspension of the pellet in a small volume of TE, and purification over a Roche G-25 size exclusion spin column. The labeling efficiency is determined by calculating the ratio of fluorescein absorbance at 490 nm to RNA-fluorescein absorbance at 260 nm. Typical efficiencies are 60-80%.
The ability of MEX-5 to associate with RNA was monitored by fluorescence polarization using a victor V3 or victor V2V plate reader (Perkin Elmer) in 384-well FluoTrak microplates (Grenier). […]
A general note: Polarisation of emitted light reports the rotation of a fluorescent probe.
As for `COc1ccc(OCc2nnc(S)n2-c2ccccc2)cc1` [CE], the remaining activity at 192 µM turned out to be 22.7%. `CCCn1c(NC(=S)Nc2ccccc2)nc2ccccc21` [CH]: the remaining activity at 192 µM was found to be 23.1%. The same measure, in the same setting: then `O=[N+]([O-])c1cccc(S(=O)(=O)Nc2cc(Cl)c(O)c3ccccc23)c1` [X], with 6.69%. `CCOC(=O)c1c[nH]c2nc3ccccc3n2c1=O` [AM]: the remaining activity at 192 µM is 10.5%. `O=C(Nc1nc2ccccc2s1)c1cccc(C(=O)Nc2nc3ccccc3s2)n1` [AP]: the remaining activity at 192 µM amounted to 12.2%. Same read-out and setting: in the case of `O=S(=O)(Nc1cc(Cl)c(O)c2ccccc12)c1cccs1` [V] it was 6.26%; in that of `COc1ccc(C(=O)Nc2nc(N3C(=O)c4ccccc4C3=O)n(-c3ccccc3)n2)cc1` [BE], 16.1%; in that of `Sc1nnc(CCc2ccccc2)n1-c1ccccc1` [BD], 15.5%. On the same count and under the same terms, in the case of `Cc1ccc(S(=O)(=O)Nc2nc(N3C(=O)c4ccccc4C3=O)n(-c3ccccc3)n2)cc1` [AT] it was 13.2%; in that of `Oc1ccccc1-c1n[nH]c(=S)n1-c1ccccc1` [BM], 18.8%. Take `Cc1cc([N+](=O)[O-])ccc1NC(=O)c1cnccn1` [BG]: the remaining activity at 192 µM worked out at 17.2%.

Take `Cc1ccccc1OCc1nnc(S)n1C` [CN]: the remaining activity at 192 µM is 23.9%. For `Sc1nnc(SCc2ccccc2Cl)s1` [CT], the remaining activity at 192 µM is 25.2%. The same measure, in the same setting: in the case of `O=C(Nc1nc2n(n1)C(c1ccccc1)C=C(c1ccccc1)N2)c1ccc([N+](=O)[O-])cc1` (stereo not shown) [BH] it was 17.6%; in that of `Cc1ccc(-c2cc(C(=O)Nc3ccccc3Cl)c3ccccc3n2)o1` [BW], 21.2%; in that of `CCOC(=O)Cc1nnc(NC(=O)c2ncn[nH]2)s1` [N], 2.09%.

As to `CCc1cc(-c2n[nH]c(C)c2-c2nc3ccccc3s2)c(O)cc1OC` [CU], the remaining activity at 192 µM turned out to be 25.3%. Same read-out and setting: in the case of `C=CCn1c(S)nnc1CCc1ccc(OC(C)C)cc1` [CS] it was 25.2%; in that of `O=C(CSc1nnc2c(n1)[nH]c1ccccc12)Nc1ccc(S(=O)(=O)Nc2nccs2)cc1` [CI], 23.2%. Consider `CC(=O)Nc1nc(N2C(=O)c3ccccc3C2=O)n(-c2ccccc2)n1` [CV], for which the remaining activity at 192 µM was determined as 25.5%.

`O=C(NC(=S)N(Cc1ccccc1)Cc1ccccc1)c1ccc([N+](=O)[O-])cc1` [CK]: the remaining activity at 192 µM came to 23.4%. On the same count and under the same terms, then `CCC(=O)NC(c1ccc(OC)c(OC)c1)c1cc([N+](=O)[O-])c2cccnc2c1O` (stereo not shown) [AG], with 8.62%; and `Sc1nnc(-c2cccs2)n1-c1ccccc1` [R], with 3.52%. On the same count and under the same terms, in the case of `O=[N+]([O-])c1cccc(S(=O)(=O)Nc2cc(Br)c(O)c3ccccc23)c1` [AJ] it was 9.23%. On the same count and under the same terms, then `O=[N+]([O-])c1cc(CN2CCOCC2)c2cccnc2c1O` [U], with 6.21%. Turning to `Cc1ccccc1Cn1c(S)nc2ccccc21` [AX], the remaining activity at 192 µM came to 14.1%. As for `O=[N+]([O-])c1cc(CN2CCC(c3ccccc3)C2)c(O)c2ncccc12` (stereo not shown) [BX], the remaining activity at 192 µM amounted to 21.2%.

Take `Cc1ccc(-n2c(-c3ccco3)n[nH]c2=S)cc1` [AS]: the remaining activity at 192 µM stood at 13.1%.

For `Cn1c(-c2cc(Br)ccc2O)n[nH]c1=S` [AN], the remaining activity at 192 µM is 10.5%.

Turning to `CCCc1nnc(NC(=O)c2cccc(C(=O)Nc3nnc(CCC)s3)n2)s1` [AK], the remaining activity at 192 µM amounted to 10.2%. As to `COc1cc(-c2nnc(S)n2-c2ccc(C)cc2C)cc(OC)c1OC` [CF], the remaining activity at 192 µM came out at 22.9%. With `COc1ccc(OCCn2c(NC(C)=O)nc3ccccc32)cc1` [BC], the remaining activity at 192 µM was found to be 15.5%.

Regarding `COc1ccc(C(=O)NC(=S)Nc2cc(C)cc(C)c2)cc1Cl` [BN], the remaining activity at 192 µM came out at 18.9%. Same read-out and setting: then `CCc1ccc(-n2c(-c3cc(Cl)ccc3OC)n[nH]c2=S)cc1` [CG], with 23%; and `CCCCC(=O)Nc1cccc(NC(=S)NC(=O)C(C)C)c1` [BT], with 20.2%. The same measure, in the same setting: then `O=c1[nH]c(=S)[nH]c2sc3c(c12)CCCCCCCCCC3` [CJ], with 23.4%; and `S=C(Nc1ccccc1)Nc1nc2ccccc2n1Cc1ccccc1` [AR], with 12.9%; and `Sc1nnc(COc2cccc(Br)c2)n1-c1ccccc1` [BB], with 15.4%.

As to `Cc1cc(C)nc(NS(=O)(=O)c2ccc(Nc3nc(-c4ccc(O)c(O)c4)cs3)cc2)n1` [AC], the remaining activity at 192 µM was 7.58%. Consider `CCOC(=O)C(=O)Nc1nnc(Cc2ccc(Cl)cc2)s1` [Q], for which the remaining activity at 192 µM is 3.51%. Consider `CC(C)Oc1ccc(Cc2nnc(S)n2-c2ccccc2)cc1Cl` [CM], for which the remaining activity at 192 µM stood at 23.6%. Still for that read-out and setting: then `O=C(NC(=S)N(Cc1ccccc1)Cc1ccccc1)c1ccc(Br)o1` [CP], with 24.1%; and `CCOC(=O)N1CCN(C(=S)Nc2ccc3nc(-c4ccccn4)c(-c4ccccn4)nc3c2)CC1` [BZ], with 21.4%. On to `CCCCn1c(NC(=S)Nc2ccccc2)nc2ccccc21` [AW], for which the remaining activity at 192 µM was determined as 14.1%.

Consider `CCOC(=O)C(=O)Nc1nnc(C(C)(C)C)s1` [CR], for which the remaining activity at 192 µM stood at 24.7%. Same read-out and setting: then `Cc1ccc(C(=O)Nc2nc(-c3ccccc3)c(-c3ccccc3)o2)cc1` [CC], with 22.5%.

In the case of `Sc1nnc(-c2cccs2)n1CCc1ccccc1` [BQ], the remaining activity at 192 µM is 19.5%. Still for that read-out and setting: in the case of `Fc1ccc(-n2c(S)nnc2-c2cccs2)cc1` [CL] it was 23.5%.

The test is the same for the next values; noted with them: read-out: MEX-5 score.
Regarding `CC(=O)Oc1ccc2c(C)cc(=O)oc2c1OC(C)=O` [CQ], the remaining activity at 192 µM came to 24.5%.
